Data taken from patent US20060147388A1, “Pharmaceutical compositions for nasal delivery” (priority 2003, published 2006).
Several values for one entry are separate records, joined by “and”; a condition that tells them apart may be missing. Identical values can stand only once.

System: ‘off’ period in subjects with PD
Experiment: Single-dose reversal of 'off' period in subjects with PD, subcutaneous vs intra-nasal apomorphine
Format: in vivo, human
Conditions: for Duration of ‘on’ response / Latency for ‘on’ response: s/c (subcutaneous), normal dose 2-5 mg, individual PD subjects 1-6
Excerpt: The nasal powder formulation used in this study was in accordance with this invention prepared using the method of Method example 1 and comprised the following components:
Six subjects with PD complicated by motor fluctuations were studied, 5 male (mean age 64 years, range 57-70 years), […]. The mean duration of disease was 13 years (range 7-24 years). […] On each dosing day the subjects attended the clinic and their normal oral medication was withheld until an ‘off’ episode developed. Each subject then received the designated apomorphine dose (subcutaneous or nasal). The abbreviated Unified PD Rating Scale (UPDRS) was used to assess motor performance at regular intervals following each apomorphine dosing. The time for the ‘off’ period to be fully alleviated and the duration of this response were determined primarily by patient feedback and supported by clinical judgement and the UPDRS scores.

[1] = subcutaneous dosing 2-5 mg, mean of 6 subjects

## CN1CCc2cccc3c2[C@H]1Cc1ccc(O)c(O)c1-3 [subcutaneous apomorphine, Apomorphine]
Subcutaneous dose 2 mg
  Duration of ‘on’ response: 75 min and 96 min
  Latency for ‘on’ response: 20 min
Subcutaneous dose 4 mg
  Duration of ‘on’ response: 65 min and 48 min and 43 min
  Latency for ‘on’ response: 14 min (2×) and 30 min
Subcutaneous dose 5 mg
  Duration of ‘on’ response: 46 min
  Latency for ‘on’ response: 61 min
[1]
  Mean duration of ‘on’ response: 62 min
  Mean latency of ‘on’ response: 27 min
Subcutaneous dosing 2-5 mg, range over 6 subjects
  Range of latency of response: 14 to 61 min
Subcutaneous dosing, range over 6 subjects
  Range of duration of response: 43 to 96 min
